Biological target: T1, His6-PDK1 (aa 52-556) (Homo sapiens, UniProt O15530)
T1 construct: 15 μL His6-PDK1 (aa 52-556) 3.33 ng/well) and PDKtide; host or cells: baculovirus-infected insect cells
T1 sequence (O15530 52-556): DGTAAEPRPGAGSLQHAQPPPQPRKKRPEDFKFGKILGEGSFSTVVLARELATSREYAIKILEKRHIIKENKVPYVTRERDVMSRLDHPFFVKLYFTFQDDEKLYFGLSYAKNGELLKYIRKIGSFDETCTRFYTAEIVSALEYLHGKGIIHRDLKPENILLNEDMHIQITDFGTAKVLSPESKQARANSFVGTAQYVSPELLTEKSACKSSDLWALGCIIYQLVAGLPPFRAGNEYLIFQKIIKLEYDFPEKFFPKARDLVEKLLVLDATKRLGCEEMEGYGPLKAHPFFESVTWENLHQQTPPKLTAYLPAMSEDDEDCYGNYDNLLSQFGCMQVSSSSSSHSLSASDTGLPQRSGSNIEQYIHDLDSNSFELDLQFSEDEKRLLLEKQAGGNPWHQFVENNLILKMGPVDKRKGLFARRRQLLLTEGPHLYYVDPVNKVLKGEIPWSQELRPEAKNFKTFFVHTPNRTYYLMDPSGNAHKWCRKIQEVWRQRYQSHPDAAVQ
Experiment: PDK1 kinase assay III (with Tween 20)
Format: biochemical
Conditions: 10 μM compound, residual enzyme activity relative to DMSO control, unmarked values, read-out: % CTL
Protocol: Another PDK1 assay was developed which by comparison with PDK1 assay 1 additionally contains Tween 20:
The following components are combined in a well of a 96-well round-based dish (Messrs. Greiner bio-one, No. 650101): • 15 μL of compound to be tested in varying concentrations (e.g. Starting at 10 μM, and diluted in steps of 1:5) in APT buffer (50 mM tris/C1 pH7.5; 0.05% β-mercaptoethanol; 10 mM Mg-acetate; 0.0166% Tween 20; 3.33% DMSO) • 15 μL His6-PDK1 (aa 52-556) 3.33 ng/well) and PDKtide (KTFCGTPEYLAPEVRRE […]), synthesised by Pepceuticals Limited, Nottingham, United Kingdom; 25 μM final concentration); His6-PDK1 and PDKtide are together diluted accordingly in assay buffer (50 mM tris pH 7.5, 0.05% β-mercaptoethanol, 10 mM Mg-acetate); PDKtide is present in this mixture as an 83.3 μM solution. These 30 μL are routinely incubated for 30 min at RT. • 20 μL ATP solution (25 μM ATP with 1.0 μCi/well gamma-P33-ATP). The final concentration of Tween 20 is 0.005%.
The reaction is started by adding the ATP solution and the mixture is incubated for 90 min at ambient temperature; at the start of the reaction the dishes are shaken gently. The reaction is stopped by the addition of 50 μL/well of 500 mM phosphoric acid (H3PO4) and incubated for about 20 min at ambient temperature. The precipitate is transferred by harvesting onto filter plates (96-well microtitre filter plate: UniFilter GF/C; Messrs Perkin Elmer; No. 6005174), then washed 6 times with 50 mM H3PO4 and dried at 60° C. Then the plate is stuck down with sealing tape, 25 μL/well of scintillation solution (Microscint 0; Messrs. Perkin Elmer; No. 6013611) are added and the amount of P33 precipitated is measured using the Wallac Betacounter. The measured data are evaluated using Graphpad Prism software.
The % CTL values indicate the residual activity of the enzyme after the addition of the inhibitory compound in the solvent DMSO in relation to the enzyme activity in the solvent DMSO without the addition of a compound (control). The majority of the values were determined using the PDK1 kinase assay III described hereinbefore. The values marked with an asterisk (*) were determined using the PDK1 kinase assay II described hereinbefore.

Compound	remaining activity at 10 µM
O=C1Nc2cc(/C=C/CNC(=O)c3cccn(Cc4ccc(Cl)nc4)c3=O)ccc2/C1=C/c1cnc[nH]1 [I-1, 1-[(6-chloropyridin-3-yl)methyl]-N-{(2E)-3-[(3Z)-3-(1H-imidazol-5-ylmethylidene)-2-oxo-2,3-dihydro-1H-indol-6-yl]prop-2-en-1-yl}-2-oxo-1,2-dihydropyridine-3-carboxamide]	16.8%
O=C1Nc2cc(/C=C/CNC(=O)c3cccn(Cc4ccc(Cl)nc4)c3=O)ccc2/C1=C/c1ccc[nH]1 [I-2, 1-[(6-chloropyridin-3-yl)methyl]-2-oxo-N-{(2E)-3-[(3Z)-2-oxo-3-(1H-pyrrol-2-ylmethylidene)-2,3-dihydro-1H-indol-6-yl]prop-2-en-1-yl}-1,2-dihydropyridine-3-carboxamide]	21.4%
CN(C)CCNC(=O)c1cccc(-c2c[nH]c(/C=C3\C(=O)Nc4cc(/C=C/CNC(=O)c5cccn(Cc6ccc(Cl)nc6)c5=O)ccc43)c2)c1 [I-3, 1-[(6-chloropyridin-3-yl)methyl]-N-{(2E)-3-[(3Z)-3-{[4-(3-{[2-(dimethylamino)-ethyl]carbamoyl}phenyl)-1H-pyrrol-2-yl]methylidene}-2-oxo-2,3-dihydro-1H-indol-6-yl]prop-2-en-1-yl}-2-oxo-1,2-dihydropyridine-3-carboxamide]	18.9%
O=C1Nc2cc(/C=C/CNC(=O)c3cccn(Cc4cccnc4)c3=O)ccc2/C1=C/c1ccc[nH]1 [I-4, 2-oxo-N-{(2E)-3-[(3Z)-2-oxo-3-(1H-pyrrol-2-ylmethylidene)-2,3-dihydro-1H-indol-6-yl]prop-2-en-1-yl}-1-(pyridin-3-ylmethyl)-1,2-dihydropyridine-3-carboxamide]	18.6%
O=C1Nc2cc(/C=C/CNC(=O)c3cccn(Cc4ccncc4)c3=O)ccc2/C1=C/c1ccc[nH]1 [I-5, 2-oxo-N-{(2E)-3-[(3Z)-2-oxo-3-(1H-pyrrol-2-ylmethylidene)-2,3-dihydro-1H-indol-6-yl]prop-2-en-1-yl}-1-(pyridin-4-ylmethyl)-1,2-dihydropyridine-3-carboxamide]	39.6%
O=C1Nc2cc(/C=C/CNC(=O)c3cccn(Cc4ccccn4)c3=O)ccc2/C1=C/c1ccc[nH]1 [I-6, 2-oxo-N-{(2E)-3-[(3Z)-2-oxo-3-(1H-pyrrol-2-ylmethylidene)-2,3-dihydro-1H-indol-6-yl]prop-2-en-1-yl}-1-(pyridin-2-ylmethyl)-1,2-dihydropyridine-3-carboxamide]	20.1%
O=C1Nc2cc(/C=C/CNC(=O)c3cccn(Cc4cccnc4)c3=O)ccc2/C1=C/c1cnc[nH]1 [I-7, N-{(2E)-3-[(3Z)-3-(1H-imidazol-5-ylmethylidene)-2-oxo-2,3-dihydro-1H-indol-6-yl]prop-2-en-1-yl}-2-oxo-1-(pyridin-3-ylmethyl)-1,2-dihydropyridine-3-carboxamide]	14.5%
O=C1Nc2cc(/C=C/CNC(=O)c3cccn(Cc4ccncc4)c3=O)ccc2/C1=C/c1cnc[nH]1 [I-8, N-{(2E)-3-[(3Z)-3-(1H-imidazol-5-ylmethylidene)-2-oxo-2,3-dihydro-1H-indol-6-yl]prop-2-en-1-yl}-2-oxo-1-(pyridin-4-ylmethyl)-1,2-dihydropyridine-3-carboxamide]	25.1%
O=C1Nc2cc(/C=C/CNC(=O)c3cccn(Cc4ccccn4)c3=O)ccc2/C1=C/c1cnc[nH]1 [I-9, N-{(2E)-3-[(3Z)-3-(1H-imidazol-5-ylmethylidene)-2-oxo-2,3-dihydro-1H-indol-6-yl]prop-2-en-1-yl}-2-oxo-1-(pyridin-2-ylmethyl)-1,2-dihydropyridine-3-carboxamide]	17.7%
O=C1Nc2cc(/C=C/CNC(=O)c3cccn(CC4CCCCC4)c3=O)ccc2/C1=C/c1ccc[nH]1 [I-13, 1-(cyclohexylmethyl)-2-oxo-N-{(2E)-3-[(3Z)-2-oxo-3-(1H-pyrrol-2-ylmethylidene)-2,3-dihydro-1H-indol-6-yl]prop-2-en-1-yl}-1,2-dihydropyridine-3-carboxamide]	25.7%

Source: US8637549B2, “Pyridons as PDK1 inhibitors” (Boehringer Ingelheim International GmbH, priority 2008, dated 2014)
